# Measurements published in patent US7858621B2 (Amorepacific Corporation, priority 2006, dated 2010).
# Target: T1, vanilloid receptor (Rattus norvegicus, UniProt O35433)
# T1 construct: DRG nerve cells from the primary culture of 2 days were equilibrated; endogenous in cells; host or cells: primary culture of dorsal root ganglion neurons from neonatal SD rats
# Assay: 45Ca influx test in cultured neonatal rat DRG neurons, inhibition of capsaicin response
# Assay type: cell-based
# Details: neonatal rat DRG neurons, capsaicin 0.5 μM, 45Ca influx; read-out: Antagonist Calcium Uptake Test (IC50)
# Protocol: 1) Separation of Spinal Dorsal Root Ganglia (DRG) in Newborn Rats and Primary Culture Thereof
# Neonatal (2-3 day old or younger than 2-3 day old) SD rats were put in ice for 5 minutes to anesthetize and disinfected with 70% ethanol. […] The DRG were incubated sequentially at 37° C. for 30 mins in 200 U/ml collagenase and 2.5 mg/ml trypsin, separately. The ganglia were washed twice with DME/F12 medium supplemented with 10% horse serum, triturated through a fire-polished Pasteur pipette, filtered through Nitex 80 membrane to obtain single cell suspension and the suspension was washed once more. This was subjected to centrifugation, then resuspended in cell culture medium at certain level of cell density. As the cell culture medium, DME/F12 medium supplemented with 10% horse serum was diluted with identical medium conditioned by C6 glioma cells 2 days on a confluent monolayer (1:1), and NGF (Nerve Growth Factor) was added to adjust 200 ng/ml as final concentration. After the cells were grown 2 days in medium where cytosine arabinoside (Ara-C, 100 μM) was added to kill dividing nonneuronal cells, medium was changed to one without Ara-C. The resuspended cells were plated at a density of 1500-2000 neurons/well onto Terasaki plates previously coated with 10 μg/ml poly-D-ornithine.
# 2) ^45Ca Influx Experiments
# DRG nerve cells from the primary culture of 2 days were equilibrated by washing 4 times with HEPES (10 mM, pH 7.4)-buffered Ca^2+, Mg^2+-free HBSS (H-HBSS). The solution in each well was removed from the individual well. Medium containing the test compound plus capsaicin (final concentration 0.5 μM) and ^45Ca (final concentration 10 μCi/ml) in H-HBSS was added to each well and incubated at room temperature for 10 mins. Terasaki plates were washed five times with H-HBSS and dried at room temperature. To each well, 0.3% SDS (10 μl) was added to elute ^45Ca. After the addition of scintillation cocktail of into each well, the amount of ^45Ca influx into neuron was measured by counting radioactivity.
# T1 sequence (O35433 whole entry): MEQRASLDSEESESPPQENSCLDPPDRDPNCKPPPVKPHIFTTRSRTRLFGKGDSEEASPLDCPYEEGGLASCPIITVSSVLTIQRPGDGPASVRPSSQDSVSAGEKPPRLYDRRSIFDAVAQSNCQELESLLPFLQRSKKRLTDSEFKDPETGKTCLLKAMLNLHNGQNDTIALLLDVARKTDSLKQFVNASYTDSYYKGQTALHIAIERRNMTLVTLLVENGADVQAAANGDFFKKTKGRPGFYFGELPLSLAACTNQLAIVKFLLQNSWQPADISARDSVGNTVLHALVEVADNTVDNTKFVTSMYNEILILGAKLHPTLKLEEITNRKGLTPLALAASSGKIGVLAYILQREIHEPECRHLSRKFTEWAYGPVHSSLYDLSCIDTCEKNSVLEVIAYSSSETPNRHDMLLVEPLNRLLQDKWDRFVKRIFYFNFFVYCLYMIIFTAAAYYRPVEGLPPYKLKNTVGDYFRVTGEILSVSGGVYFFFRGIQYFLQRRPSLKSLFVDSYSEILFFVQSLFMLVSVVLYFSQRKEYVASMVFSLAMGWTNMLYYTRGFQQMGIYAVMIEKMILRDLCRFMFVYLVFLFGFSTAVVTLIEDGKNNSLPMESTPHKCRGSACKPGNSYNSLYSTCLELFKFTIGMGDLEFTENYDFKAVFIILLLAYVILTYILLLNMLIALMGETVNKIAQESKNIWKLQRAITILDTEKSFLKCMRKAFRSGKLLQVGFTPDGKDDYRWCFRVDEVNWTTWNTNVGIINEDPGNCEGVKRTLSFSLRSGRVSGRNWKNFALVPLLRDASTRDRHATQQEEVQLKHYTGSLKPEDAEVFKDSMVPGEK
row,Structure (SMILES),IC50 [nM]
1,"CS(=O)(=O)Nc1c(F)cc(CNC(=O)/C=C/c2ccc(C(F)(F)F)nc2N2CCCC2)cc1C#N [Example 97, N-(3-Cyano-5-fluoro-4-methanesulfonylamino-benzyl)-3-(2-pyrrolidin-1-yl-6-trifluoromethyl-pyridin-3-yl)-acrylamide]",290
2,"CCCc1nc(C(F)(F)F)ccc1/C=C/C(=O)N[C@H](C)c1ccc(NS(C)(=O)=O)c(F)c1 [Example 209, (R)-3-(2-Propyl-6-trifluoromethyl-pyridin-3-yl)-N-[1-(3-fluoro-4-methanesulfonylamino-phenyl)-ethyl]-acrylamide]",87
3,"C#Cc1cc(CNC(=O)COc2ccc(Cl)nc2)cc(F)c1NS(C)(=O)=O [Example 35, 2-(6-Chloro-pyridin-3-yloxy)-N-(3-ethynyl-5-fluoro-4-methanesulfonylamino-benzyl)-acetamide]",> 10000
4,"CS(=O)(=O)Nc1ccc(CNC(=O)/C=C/c2ccc(N3CCCCC3)nc2)cc1F [Example 19, N-(3-Fluoro-4-methanesulfonylamino-benzyl)-3-(6-piperid-1-yl-pyridinyl-3-yl)-acrylamide]",> 10000
5,"C#Cc1cc(CNC(=O)/C=C/c2ccc(C(F)(F)F)nc2OCCCC)cc(F)c1NS(C)(=O)=O [Example 66, 3-(2-Butoxy-6-trifluoromethyl-pyridin-3-yl)-N-(3-ethynyl-5-fluoro-4-methanesulfonylamino-benzyl)-acrylamide]",250
6,C#Cc1cc(CNC(=O)/C=C/c2ccc(C(F)(F)F)nc2-c2ccc(F)nc2)cc(F)c1NS(C)(=O)=O [Example 135],2300
7,"CCOC(=O)C1CCN(c2nc(C(F)(F)F)ccc2/C=C/C(=O)NCc2ccc(NS(C)(=O)=O)c(F)c2)CC1 [Example 95, N-(3-Fluoro-4-methanesulfonylamino-benzyl)-3-[2-(4-ethoxycarbonyl-piperid-1-yl)-6-trifluoromethyl-pyridin-3-yl]-acrylamide]",550
8,"CC(C)Cc1nc(C(F)(F)F)ccc1/C=C/C(=O)NCc1ccc(NS(C)(=O)=O)c(F)c1 [Example 147, N-(3-Fluoro-4-methanesulfonylamino-benzyl)-3-(2-isobutyl-6-trifluoromethyl-pyridin-3-yl)-acrylamide]",220
9,"CCCc1nc(C(F)(F)F)ccc1/C=C/C(=O)NCc1ccc(NS(C)(=O)=O)c(C)c1 [Example 208, N-(4-Methanesulfonylamino-3-methyl-benzyl)-3-(2-propyl-6-trifluoromethyl-pyridin-3-yl)-acrylamide]",49
10,"CCCCOc1nc(C(F)(F)F)ccc1/C=C/C(=O)NCc1cc(F)c(NS(C)(=O)=O)c(C(F)(F)F)c1 [Example 168, 3-(2-Butoxy-6-trifluoromethyl-pyridin-3-yl)-N-(3-fluoro-4-methanesulfonylamino-5-trifluoromethyl-benzyl)-acrylamide]",1800
11,"CS(=O)(=O)Nc1ccc(CNC(=O)/C=C/c2ccc(N3CCCC3)nc2)cc1F [Example 25, N-(3-Fluoro-4-methanesulfonylamino-benzyl)-3-(6-pyrrolidin-1-yl-pyridin-3-yl)-acrylamide]",> 10000
12,"CS(=O)(=O)Nc1ccc(CNC(=O)/C=C/c2ccc(C(F)(F)F)nc2Nc2ccccc2)cc1F [Example 127, N-(3-Fluoro-4-methanesulfonylamino-benzyl)-3-(2-phenylamino-6-trifluoromethyl-pyridin-3-yl)-acrylamide]",320
13,"CCCCOc1nc(C(F)(F)F)ccc1/C=C/C(=O)N[C@H](C)c1ccc(NS(C)(=O)=O)c(F)c1 [Example 169, (R)-3-(2-Butoxy-6-trifluoromethyl-pyridin-3-yl)-N-[1-(3-fluoro-4-methanesulfonylamino-phenyl)-ethyl]-acrylamide]",170
14,"C#Cc1cc(CNC(=O)/C=C/c2ccc(C(C)(C)C)nc2N2CCOCC2)cc(F)c1NS(C)(=O)=O [Example 59, 3-(6-tert-Butyl-2-morpholin-4-yl-pyridin-3-yl)-N-(3-ethynyl-5-fluoro-4-methanesulfonylamino-benzyl)-acrylamide]",210
15,"CCCCOc1nc(C(F)(F)F)ccc1/C=C/C(=O)NCc1ccc(NS(C)(=O)=O)c(C)c1 [Example 170, 3-(2-Butoxy-6-trifluoromethyl-pyridin-3-yl)-N-(4-methanesulfonylamino-3-methyl-benzyl)-acrylamide]",340
16,"CCNc1nc(C(F)(F)F)ccc1/C=C/C(=O)NCc1ccc(NS(C)(=O)=O)c(F)c1 [Example 256, 3-(2-Ethylamino-6-trifluoromethyl-pyridin-3-yl)-N-(3-fluoro-4-methanesulfonylamino-benzyl)-acrylamide]",68

# Further compounds by falling IC50, results first:
row,IC50 [nM],Structure (SMILES)
1,3200,"Cc1nc(C(F)(F)F)ccc1/C=C/C(=O)NCc1ccc(NS(C)(=O)=O)c(F)c1 [Example 69, N-(3-Fluoro-4-methanesulfonylaminobenzyl)-3-(2-methyl-6-trifluoromethylpyridin-3-yl)acrylamide]"
2,1800,"COCCOc1nc(C(F)(F)F)ccc1/C=C/C(=O)NCc1cc(F)c(NS(C)(=O)=O)c(C#N)c1 [Example 99, N-(3-Cyano-5-fluoro-4-methanesulfonylamino-benzyl)-3-[2-(2-methoxy-ethoxy)-6-trifluoromethyl-pyridin-3-yl]-acrylamide]"
3,1300,CCC/C(=C/C(=O)NCc1ccc(NS(C)(=O)=O)c(Cl)c1)c1ccc(C(F)(F)F)nc1CCC [Example 271]
4,450,"C=CS(=O)(=O)Nc1ccc(CNC(=O)/C=C/c2ccc(C(F)(F)F)nc2NC(C)C)cc1 [Example 267, N-(4-Ethenesulfonylamino-benzyl)-3-(2-isopropylamino-6-trifluoromethyl-pyridin-3-yl)-acrylamide]"
5,240,"C#Cc1cc(CNC(=O)/C=C/c2ccc(C(F)(F)F)nc2OCC(F)(F)F)cc(F)c1NS(C)(=O)=O [Example 84, N-(3-Ethynyl-5-fluoro-4-methansulfonylamino-benzyl)-3-[2-(2,2,2-trifluoro-ethoxy)-6-trifluoromethyl-pyridin-3-yl]-acrylamide]"
6,210,"C#Cc1cc(CNC(=O)/C=C/c2ccc(C(F)(F)F)nc2CC)cc(F)c1NS(C)(=O)=O [Example 150, 3-(2-Ethyl-6-trifluoromethyl-pyridin-3-yl)-N-(3-ethynyl-5-fluoro-4-methanesulfonylamino-benzyl)-acrylamide]"
7,200,"C#Cc1cc(CNC(=O)/C=C/c2ccc(C(F)(F)F)nc2SC(C)C)cc(F)c1NS(C)(=O)=O [Example 177, N-(3-Ethynyl-5-fluoro-4-methanesulfonylamino-benzyl)-3-(2-isopropylthio-6-trifluoromethyl-pyridin-3-yl)-acrylamide]"
8,180,"CS(=O)(=O)Nc1ccc(CNC(=O)/C=C/c2ccc(C(F)(F)F)nc2CCc2ccccc2)cc1F [Example 141, N-(3-Fluoro-4-methanesulfonylamino-benzyl)-3-(2-phenethyl-6-trifluoromethyl-pyridin-3-yl)-acrylamide]"
9,120,"C#Cc1cc(CNC(=O)/C=C/c2ccc(C(F)(F)F)nc2Oc2ccccc2)cc(F)c1NS(C)(=O)=O [Example 78, N-(3-Ethynyl-5-fluoro-4-methanesulfonylamino-benzyl)-3-(2-phenoxy-6-trifluoromethyl-pyridin-3-yl)-acrylamide]"
10,77,"C#Cc1cc(CNC(=O)/C=C/c2ccc(C(F)(F)F)nc2NC(C)CC)cc(F)c1NS(C)(=O)=O (stereo not drawn) [Example 117, 3-(2-sec-Butylamino-6-trifluoromethyl-pyridin-3-yl)-N-(3-ethynyl-5-fluoro-4-methanesulfonylamino-benzyl)-acrylamide]"
11,46,"CC(C)Nc1nc(C(F)(F)F)ccc1/C=C/C(=O)N[C@H](C)c1ccc(NS(C)(=O)=O)c(F)c1 [Example 218, (R)—N-[1-(3-Fluoro-4-methanesulfonylamino-phenyl)-ethyl]-3-(2-isopropylamino-6-trifluoromethyl-pyridin-3-yl)-acrylamide]"
12,33,"C#Cc1cc(CNC(=O)/C=C/c2ccc(C(F)(F)F)nc2CCCC)cc(F)c1NS(C)(=O)=O [Example 144, 3-(2-Butyl-6-trifluoromethyl-pyridin-3-yl)-N-(3-ethynyl-5-fluoro-4-methanesulfonylamino-benzyl)-acrylamide]"
13,28,"CCCCNc1nc(C(F)(F)F)ccc1/C=C/C(=O)N[C@H](C)c1ccc(NS(C)(=O)=O)c(F)c1 [Example 213, (R)—N-[1-(3-Fluoro-4-methanesulfonylamino-phenyl)-ethyl]-3-(2-butylamino)-6-trifluoromethyl-pyridin-3-yl-acrylamide]"
14,24,"CC(C)Cc1nc(C(F)(F)F)ccc1/C=C/C(=O)N[C@H](C)c1cc(F)c(NS(C)(=O)=O)c(F)c1 [Example 245, (R)—N-[1-(3,5-Difluoro-4-methanesulfonylamino-phenyl)-ethyl]-3-(2-isobutyl-6-trifluoromethyl-pyridin-3-yl)-acrylamide]"
